Key:
miR-200c = assay: Quantitative RT-PCR (TaqMan miRNA assay), cellular and secreted miRNA in LSMC; type: cell-based, human; settings: Tranilast 200 μM, 48 hours, P<0.05
Protocol: (§1) Total RNA was extracted from LSMC using RNAzol (GeneCopoeia, Rockville, Md.) and their quantity and quality was determined (ND-1000 Spectrophotometer, NanoDrop Technologies, Wilmington, Del.) as previously described (Chuang & Khorram, “miR-200c Regulates IL8 Expression by Targeting IKBKB: A Potential Mediator of Inflammation in Leiomyoma Pathogenesis,” PloS one (2014) 9:e95370). For medium miRNA extraction, 5 pg of synthetic miR-1 from Caenorhabditis elegans (cel-miR-1) was added as a spike-in control for purification efficiency. Subsequently, 2 μg or 10 ng (for miRNA) was reverse transcribed using random primers for CCND1, CDK2, COL1A1, COL3A1, TGF-β3, DNMT1 and EZH2 or specific primers for miR-29c and miR-200c according to the manufacturer's guidelines (Applied Biosystems, Carlsbad, Calif.). Quantitative RT-PCR was carried out using SYBR gene expression master mix or TaqMan miRNA expression assays (Applied Biosystems). Reactions were incubated for 10 min at 95° C. followed by 40 cycles for 15 seconds at 95° C. and 1 min at 60° C. The level of mRNAs and expression of cellular and secreted miRNA was determined using the Invitrogen StepOne System with 18S, RNU6B and cel-miR-1 used for normalization respectively. All reactions were run in triplicate and relative expression was analyzed with the comparative cycle threshold method (2^−ΔΔCT) according to the manufacturer (Applied Biosystems). Values were expressed as fold change compared to the control group.

miR-29c = assay: as above; type: cell-based, human; settings: Tranilast 200 μM, 48 hours, P<0.05
Protocol: as §1

COc1ccc(C=CC(=O)Nc2ccccc2C(=O)O)cc1OC [Tranilast, 2-[[3-(3,4-dimethoxyphenyl)-1-oxo-2-propenyl]amino]benzoic acid]
significantly increased: expression of secreted (medium) miR-200c (miR-200c; LSMC medium) | expression of cellular miR-200c (miR-200c; LSMC) | expression of secreted (medium) miR-29c (miR-29c; LSMC medium) | expression of cellular miR-29c (miR-29c; LSMC)

— US10517842B2, “Methods of modulating miRNA levels and compositions for use in the same” (Los Angeles Biomedical Research Institute at Harbor-UCLA …, priority 2017, dated 2019)
